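48-hour exposure; five concentrations; linearly interpolated endpoints. The concentration for 50% growth inhibition is given as GI50.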 Active and inactive are the calls of the source. Rule as the data show it: active = GI50 up to about 1.1 µM and inactive = higher.
How the values were obtained:
Assay in all cases: NCI anticancer screen, dose series, 48 h
SNB-75 = test system: SNB-75
OVCAR-8 = test system: OVCAR-8
COLO 205 = test system: COLO 205
MOLT-4 = test system: MOLT-4
SR = test system: SR
DU-145 = test system: DU-145
CAKI-1 = test system: CAKI-1
786-0 = test system: 786-0
NCI-H226 = test system: NCI-H226
M14 = test system: M14
Malme-3M = test system: Malme-3M
HCC 2998 = test system: HCC 2998
NCI-H460 = test system: NCI-H460
HCT-15 = test system: HCT-15
K562 = test system: K562
KM12 = test system: KM12
CCRF-CEM = test system: CCRF-CEM
RXF 393 = test system: RXF 393
HOP-92 = test system: HOP-92
HT-29 = test system: HT-29
SK-MEL-28 = test system: SK-MEL-28
EKVX = test system: EKVX
UACC-62 = test system: UACC-62
UO-31 = test system: UO-31
OVCAR-5 = test system: OVCAR-5
HOP-62 = test system: HOP-62
SK-MEL-5 = test system: SK-MEL-5
BT-549 = test system: BT-549
SW-620 = test system: SW-620
PC-3 = test system: PC-3
SF-539 = test system: SF-539
MDA-N = test system: MDA-N
MCF7 = test system: MCF7
RPMI-8226 = test system: RPMI-8226
MDA-MB-435 = test system: MDA-MB-435
SK-OV-3 = test system: SK-OV-3
T47D = test system: T47D
HL-60 = test system: HL-60
Hs-578T = test system: Hs-578T
LOX IMVI = test system: LOX IMVI
OVCAR-3 = test system: OVCAR-3
IGROV-1 = test system: IGROV-1
NCI-H522 = test system: NCI-H522
A498 = test system: A498
A549 = test system: A549
SNB-19 = test system: SNB-19
NCI/ADR-RES = test system: NCI/ADR-RES
UACC-257 = test system: UACC-257
HCT-116 = test system: HCT-116
SN12C = test system: SN12C
ACHN = test system: ACHN
SK-MEL-2 = test system: SK-MEL-2
OVCAR-4 = test system: OVCAR-4
SF-268 = test system: SF-268
NCI-H23 = test system: NCI-H23
SF-295 = test system: SF-295
U-251 = test system: U-251
MDA-MB-231 = test system: MDA-MB-231
TK-10 = test system: TK-10

COc1ccc(/C=C2\C[C@H]3[C@@H]4CCC5=CC(=O)CC[C@]5(C)[C@H]4CC[C@]3(C)C2=O)cc1OC was tested, and the GI50 (SNB-75) was > 100 µM (inactive), the GI50 (OVCAR-8) was 2.6 µM (inactive) and the GI50 (COLO 205) was 3.1 µM (inactive). For the same compound, the GI50 (MOLT-4) was 3.44 µM (inactive), the GI50 (SR) was 2.81 µM (inactive) and the GI50 (DU-145) was 41.2 µM (inactive). For the same compound, the GI50 (CAKI-1) was 6.97 µM (inactive), the GI50 (786-0) was 35.8 µM (inactive) and the GI50 (NCI-H226) was 11.1 µM (inactive). The GI50 (M14) was 14.9 µM (inactive), the GI50 (Malme-3M) was 8.65 µM (inactive) and the GI50 (HCC 2998) was 21.8 µM (inactive). The GI50 (NCI-H460) was 6.93 µM (inactive), the GI50 (HCT-15) was 9.25 µM and the GI50 (K562) was 3.8 µM (inactive). The GI50 (KM12) was 0.279 µM (active), the GI50 (CCRF-CEM) was 2.19 µM (inactive) and the GI50 (RXF 393) was 18 µM (inactive). The GI50 (HOP-92) was 5.27 µM (inactive), the GI50 (HT-29) was 6.87 µM (inactive) and the GI50 (SK-MEL-28) was 40.7 µM (inactive). The GI50 (EKVX) was 8.41 µM (inactive), the GI50 (UACC-62) was 6.24 µM (inactive) and the GI50 (UO-31) was 2.42 µM (inactive). For the same compound, the GI50 (OVCAR-5) was 32.4 µM (inactive), the GI50 (HOP-62) was 0.332 µM (active) and the GI50 (SK-MEL-5) was 2.46 µM (inactive). The GI50 (BT-549) was 6.34 µM (inactive), the GI50 (SW-620) was 21.1 µM (inactive) and the GI50 (PC-3) was 5.51 µM (inactive). The GI50 (SF-539) was 40 µM (inactive), the GI50 (MDA-N) was 5.94 µM (inactive) and the GI50 (MCF7) was 4.67 µM (inactive). For the same compound, the GI50 (RPMI-8226) was 3.89 µM (inactive), the GI50 (MDA-MB-435) was 5.48 µM (inactive) and the GI50 (SK-OV-3) was 0.0627 µM (active). The GI50 (T47D) was 3.56 µM (inactive), the GI50 (HL-60) was 1.37 µM (inactive) and the GI50 (Hs-578T) was 45.8 µM (inactive). For the same compound, the GI50 (LOX IMVI) was 11.9 µM (inactive), the GI50 (OVCAR-3) was 17.5 µM (inactive) and the GI50 (IGROV-1) was 10.4 µM (inactive). The GI50 (NCI-H522) was 2.74 µM (inactive), the GI50 (A498) was 3.25 µM (inactive) and the GI50 (A549) was 5.58 µM (inactive). The GI50 (SNB-19) was 44.6 µM (inactive), the GI50 (NCI/ADR-RES) was 6.27 µM (inactive) and the GI50 (UACC-257) was 4.6 µM (inactive). The GI50 (HCT-116) was 8.05 µM (inactive), the GI50 (SN12C) was 14.4 µM (inactive) and the GI50 (ACHN) was 9.04 µM (inactive). For the same compound, the GI50 (SK-MEL-2) was 4.13 µM (inactive), the GI50 (OVCAR-4) was 13.2 µM (inactive) and the GI50 (SF-268) was > 100 µM (inactive). For the same compound, the GI50 (NCI-H23) was 17.6 µM (inactive) and the GI50 (SF-295) was 0.0635 µM (active).

In the case of Brc1ccc2c(c1)-c1nc3nc4c(cc3cc1CC2)CCc1ccc(Br)cc1-4, the GI50 (SNB-75) is reported as > 100 µM (inactive), the GI50 (OVCAR-8) is reported as > 100 µM (inactive) and the GI50 (COLO 205) is reported as > 100 µM (inactive). The GI50 (MOLT-4) was > 100 µM (inactive), the GI50 (CAKI-1) was > 100 µM (inactive) and the GI50 (786-0) was > 100 µM (inactive). The GI50 (NCI-H226) was > 100 µM (inactive), the GI50 (M14) was > 100 µM (inactive) and the GI50 (Malme-3M) was > 100 µM (inactive). The GI50 (HCC 2998) was > 100 µM (inactive), the GI50 (NCI-H460) was > 100 µM (inactive) and the GI50 (HCT-15) was > 100 µM. For the same compound, the GI50 (K562) was > 100 µM (inactive), the GI50 (KM12) was 62.7 µM (inactive) and the GI50 (RXF 393) was > 100 µM (inactive). For the same compound, the GI50 (HOP-92) was > 100 µM (inactive), the GI50 (SK-MEL-28) was > 100 µM (inactive) and the GI50 (EKVX) was > 100 µM (inactive). The GI50 (UO-31) was > 100 µM (inactive), the GI50 (OVCAR-5) was > 100 µM (inactive) and the GI50 (HOP-62) was > 100 µM (inactive). The GI50 (U-251) was > 100 µM (inactive), the GI50 (SK-MEL-5) was > 100 µM (inactive) and the GI50 (BT-549) was > 100 µM (inactive). The GI50 (SW-620) was > 100 µM (inactive), the GI50 (PC-3) was > 100 µM (inactive) and the GI50 (SF-539) was > 100 µM (inactive). The GI50 (MDA-N) was > 100 µM (inactive), the GI50 (MCF7) was > 100 µM (inactive) and the GI50 (RPMI-8226) was > 100 µM (inactive). For the same compound, the GI50 (MDA-MB-231) was > 100 µM (inactive), the GI50 (MDA-MB-435) was 5.65 µM (inactive) and the GI50 (SK-OV-3) was > 100 µM (inactive). The GI50 (T47D) was > 100 µM (inactive), the GI50 (TK-10) was > 100 µM (inactive) and the GI50 (LOX IMVI) was > 100 µM (inactive). For the same compound, the GI50 (OVCAR-3) was > 100 µM (inactive), the GI50 (IGROV-1) was > 100 µM (inactive) and the GI50 (NCI-H522) was > 100 µM (inactive). The GI50 (A498) was > 100 µM (inactive), the GI50 (A549) was > 100 µM (inactive) and the GI50 (SNB-19) was > 100 µM (inactive). For the same compound, the GI50 (NCI/ADR-RES) was > 100 µM (inactive), the GI50 (UACC-257) was > 100 µM (inactive) and the GI50 (HCT-116) was > 100 µM (inactive). For the same compound, the GI50 (SN12C) was > 100 µM (inactive), the GI50 (ACHN) was > 100 µM (inactive) and the GI50 (SK-MEL-2) was > 100 µM (inactive). For the same compound, the GI50 (OVCAR-4) was 0.47 µM (active), the GI50 (SF-268) was > 100 µM (inactive) and the GI50 (NCI-H23) was > 100 µM (inactive). For the same compound, the GI50 (SF-295) was > 100 µM (inactive).

With COC(=O)Cc1c([C@@H]2Nc3ccccc3[C@H]2CC(=O)OC)[nH]c2ccccc12 the GI50 (SNB-75) was 36.9 µM (inactive), the GI50 (OVCAR-8) was 33.7 µM (inactive) and the GI50 (COLO 205) was 16 µM (inactive). The GI50 (MOLT-4) was 10.9 µM (inactive), the GI50 (SR) was 8.02 µM (inactive) and the GI50 (DU-145) was 59.4 µM (inactive). The GI50 (CAKI-1) was 47.2 µM (inactive), the GI50 (786-0) was 58.2 µM (inactive) and the GI50 (NCI-H226) was 71.8 µM (inactive). The GI50 (HCC 2998) was 45.1 µM (inactive), the GI50 (NCI-H460) was 21.1 µM (inactive) and the GI50 (HCT-15) was 5.02 µM. The GI50 (K562) was 11 µM (inactive), the GI50 (CCRF-CEM) was 20.7 µM (inactive) and the GI50 (RXF 393) was 25.7 µM (inactive). For the same compound, the GI50 (HOP-92) was 45.8 µM (inactive), the GI50 (HT-29) was 48.5 µM (inactive) and the GI50 (SK-MEL-28) was 28.3 µM (inactive). For the same compound, the GI50 (EKVX) was 43 µM (inactive), the GI50 (UACC-62) was 13.9 µM (inactive) and the GI50 (UO-31) was 16.6 µM (inactive). For the same compound, the GI50 (OVCAR-5) was 27.8 µM (inactive), the GI50 (HOP-62) was 26.9 µM (inactive) and the GI50 (U-251) was 20.4 µM (inactive). For the same compound, the GI50 (SK-MEL-5) was 7.98 µM (inactive), the GI50 (BT-549) was 18.5 µM (inactive) and the GI50 (SW-620) was 46.8 µM (inactive). For the same compound, the GI50 (PC-3) was 11.1 µM (inactive), the GI50 (SF-539) was 20.5 µM (inactive) and the GI50 (MDA-N) was 28.7 µM (inactive). For the same compound, the GI50 (MCF7) was 25.4 µM (inactive), the GI50 (RPMI-8226) was 14.9 µM (inactive) and the GI50 (MDA-MB-231) was 18.5 µM (inactive). For the same compound, the GI50 (MDA-MB-435) was 26.1 µM (inactive), the GI50 (SK-OV-3) was 52.4 µM (inactive) and the GI50 (Hs-578T) was 41.3 µM (inactive). The GI50 (TK-10) was 44.2 µM (inactive), the GI50 (LOX IMVI) was 21.6 µM (inactive) and the GI50 (OVCAR-3) was 18.3 µM (inactive). For the same compound, the GI50 (IGROV-1) was 9.79 µM (inactive), the GI50 (A498) was 34.7 µM (inactive) and the GI50 (A549) was 31.7 µM (inactive). For the same compound, the GI50 (SNB-19) was 55.6 µM (inactive), the GI50 (NCI/ADR-RES) was 26.9 µM (inactive) and the GI50 (UACC-257) was 24.9 µM (inactive). The GI50 (HCT-116) was 38.9 µM (inactive), the GI50 (SN12C) was 30.3 µM (inactive) and the GI50 (ACHN) was 36.6 µM (inactive). The GI50 (SK-MEL-2) was 17.7 µM (inactive), the GI50 (OVCAR-4) was 23 µM (inactive) and the GI50 (SF-268) was 31.1 µM (inactive). For the same compound, the GI50 (NCI-H23) was 27 µM (inactive) and the GI50 (SF-295) was 22.8 µM (inactive).

Reference: ChEMBL document CHEMBL1201862, “PubChem BioAssay data set” (2004)
